# Data from the supplement of paper PMC10307832.
# Legend:
# Assay in all cases: relative viability (nuclei count vs DMSO), 5 days (fraction); higher = more cells survive
# [1] = compound: CC1=C(C(=NN1)C)CC2=C(C3=C(S2)N(C(=O)N(C3=O)C)CC(C)C)C(=O)N4C[C@@H](CO4)O + Nc1nc2[nH]cc(CCc3ccc(C(=O)N[C@@H](CCC(=O)O)C(=O)O)cc3)c2c(=O)[nH]1 [Pemetrexed] (partner 0.2 µM)
# In short: (§1)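 Relative viability is defined as nuclei in treated wells over nuclei in vehicle wells. Duplicate plates were run and medians reported. Lung cancer cell lines in 1536-well plates were dosed by pin tool one day after seeding, with one drug or with a fixed anchor-drug dose plus five library-drug doses (not always all listed) in √10 steps, and nuclei were counted after 5 days.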
# [2] = compound: CC1=C(C(=NN1)C)CC2=C(C3=C(S2)N(C(=O)N(C3=O)C)CC(C)C)C(=O)N4C[C@@H](CO4)O + Cc1nc(Nc2ncc(C(=O)Nc3c(C)cccc3Cl)s2)cc(N2CCN(CCO)CC2)n1 [Dasatinib] (partner 0.075 µM)
# In short: as §1
# [3] = compound: CC1=C(C(=NN1)C)CC2=C(C3=C(S2)N(C(=O)N(C3=O)C)CC(C)C)C(=O)N4C[C@@H](CO4)O + C[C@]1(O)C[C@@H](c2nc(-c3ccc4ccc(-c5ccccc5)nc4c3)c3c(N)nccn32)C1 [Linsitinib] (partner 1 µM)
# In short: as §1
# IDH-C35 + Lapatinib = compound: Cc1ccccc1C(C(=O)NC1CCCCC1)N(C(=O)Cn1ccnc1C)c1cccc(F)c1 [IDH-C35] + CS(=O)(=O)CCNCc1ccc(-c2ccc3ncnc(Nc4ccc(OCc5cccc(F)c5)c(Cl)c4)c3c2)o1 [Lapatinib] (partner 2 µM)
# In short: as §1
Cell Line,relative viability ([1]; first compound 0.0025 µM),relative viability ([1]; first compound 0.007906 µM),relative viability ([1]; first compound 0.025 µM),relative viability ([1]; first compound 0.07906 µM),relative viability ([1]; first compound 0.25 µM),relative viability ([2]; first compound 0.0025 µM),relative viability ([2]; first compound 0.007906 µM),relative viability ([2]; first compound 0.025 µM),relative viability ([2]; first compound 0.07906 µM),relative viability ([2]; first compound 0.25 µM),relative viability ([3]; first compound 0.0025 µM),relative viability ([3]; first compound 0.007906 µM),relative viability ([3]; first compound 0.025 µM),relative viability ([3]; first compound 0.07906 µM),relative viability ([3]; first compound 0.25 µM),relative viability (IDH-C35 + Lapatinib; first compound 0.08 µM),relative viability (IDH-C35 + Lapatinib; first compound 0.253 µM),relative viability (IDH-C35 + Lapatinib; first compound 0.8 µM),relative viability (IDH-C35 + Lapatinib; first compound 2.53 µM),relative viability (IDH-C35 + Lapatinib; first compound 8 µM)
NCI-H2347,0.434,0.438,0.41,0.378,0.383,0.394,0.323,0.299,0.234,0.257,0.992,0.944,0.956,0.894,1.03,0.99,0.969,0.914,0.902,0.804
NCI-H2009,1.09,1.03,0.955,1.03,1.06,0.354,0.301,0.253,0.247,0.267,1.24,1.22,1.19,1.27,1.26,1,0.928,0.908,0.639,0.729
HCC-15,0.214,0.214,0.225,0.215,0.211,0.605,0.601,0.682,0.574,0.656,0.932,0.937,0.871,0.942,0.855,0.892,0.776,0.931,0.776,0.781
COR-L23,0.22,0.214,0.195,0.223,0.204,0.561,0.533,0.427,0.375,0.449,0.975,0.859,0.601,0.788,0.713,1.05,1.09,0.932,1,0.938
HCC-78,0.904,0.887,0.897,0.951,0.925,0.392,0.486,0.374,0.366,0.236,0.483,0.548,0.587,0.505,0.377,1.02,0.732,0.841,0.606,0.355
NCI-H2087,0.575,0.675,0.629,0.587,0.695,0.715,0.924,0.844,0.769,0.905,0.962,1.08,1.02,1.02,0.928,1.04,1.06,0.867,1.07,0.834
BEN,0.697,0.836,0.558,0.665,0.687,0.296,0.289,0.277,0.274,0.298,0.932,0.79,0.762,0.663,0.862,0.796,0.805,0.724,0.718,0.865
EKVX,0.365,0.429,0.412,0.293,0.422,0.61,0.53,0.544,0.302,0.303,0.978,1.05,0.939,1.05,1.04,0.201,0.205,0.208,0.183,0.205
LXF-289,0.88,0.811,0.751,0.922,0.975,0.248,0.241,0.226,0.142,0.247,1.02,0.919,0.957,0.953,1.04,0.9,0.893,0.91,0.965,0.877
NCI-H650,0.983,0.989,0.775,0.949,0.957,0.493,0.548,0.365,0.514,0.443,1.03,0.973,0.63,0.858,0.791,0.588,0.824,0.85,–,0.884
NCI-H2085,0.926,0.93,0.73,0.987,0.476,0.254,0.264,0.26,0.209,0.242,0.953,0.956,0.814,0.844,0.77,0.834,0.741,0.764,0.848,0.728
NCI-H1793,0.973,1.13,0.883,0.825,0.609,0.428,0.375,0.39,0.362,0.377,0.726,0.868,0.834,0.66,0.926,0.652,0.648,0.833,0.674,0.652
LC-2-ad,0.27,0.25,0.26,0.285,0.261,0.726,0.474,0.626,0.545,0.588,0.848,0.928,0.9,0.869,0.843,0.998,0.978,0.924,0.904,0.973
COR-L 105,1.27,1.15,1.06,1.24,1.35,0.477,0.298,0.34,0.273,0.341,1.1,0.943,0.853,0.961,0.95,0.33,0.359,0.337,0.34,0.369
NCI-H1355,1.09,1.08,1.04,0.847,0.927,0.759,0.701,0.783,0.689,0.685,0.889,0.927,0.867,0.791,0.785,1.03,0.976,0.945,0.97,0.934
H3255,0.632,0.576,0.496,0.618,0.563,0.42,0.319,0.283,0.343,0.347,1.06,0.881,0.909,1.01,1.11,0.246,0.244,0.283,0.304,0.414

Cell Line,relative viability ([1]; first compound 0.0025 µM),relative viability ([1]; first compound 0.007906 µM),relative viability ([1]; first compound 0.025 µM),relative viability ([1]; first compound 0.07906 µM),relative viability ([1]; first compound 0.25 µM),relative viability ([2]; first compound 0.0025 µM),relative viability ([2]; first compound 0.007906 µM),relative viability ([2]; first compound 0.025 µM),relative viability ([2]; first compound 0.07906 µM),relative viability ([2]; first compound 0.25 µM),relative viability ([3]; first compound 0.0025 µM),relative viability ([3]; first compound 0.007906 µM),relative viability ([3]; first compound 0.025 µM),relative viability ([3]; first compound 0.07906 µM),relative viability ([3]; first compound 0.25 µM),relative viability (IDH-C35 + Lapatinib; first compound 0.08 µM),relative viability (IDH-C35 + Lapatinib; first compound 0.253 µM),relative viability (IDH-C35 + Lapatinib; first compound 0.8 µM),relative viability (IDH-C35 + Lapatinib; first compound 2.53 µM),relative viability (IDH-C35 + Lapatinib; first compound 8 µM)
NCI-H1993,0.651,0.623,0.609,0.607,0.639,0.614,0.497,0.572,0.596,0.517,0.75,0.678,0.855,0.781,0.74,0.858,0.763,0.79,0.795,0.92
NCI-H1734,0.412,0.426,0.436,0.467,0.423,0.504,0.543,0.453,0.484,0.473,0.925,1.05,0.861,0.947,0.881,1.05,1.18,1.06,0.94,1.02
HOP-62,0.357,0.332,0.217,0.281,0.356,0.672,0.852,0.74,0.466,0.559,1.01,0.967,0.889,1,0.817,0.945,1.06,1.01,–,0.948
LOU-NH91,0.404,0.362,0.402,0.366,0.365,0.61,0.588,0.55,0.54,0.619,0.958,0.843,1.06,1.12,1.02,0.798,0.813,0.776,0.749,0.767
NCI-H2228,0.317,0.342,0.339,0.322,0.324,0.507,0.644,0.453,0.521,0.602,0.912,1.07,0.672,0.764,0.674,1.02,0.984,0.925,0.985,0.931
PC-14,0.158,0.126,0.155,0.122,0.121,0.281,0.261,0.254,0.278,0.269,1.06,1.02,0.93,0.936,0.94,0.361,0.304,0.316,0.363,0.423
NCI-H1437,0.341,0.322,0.331,0.354,0.316,0.393,0.409,0.314,0.488,0.434,1.03,1.21,1.01,1.1,1.08,0.942,0.807,0.776,0.904,0.812
NCI-H460,0.0637,0.0564,0.0621,0.0635,0.0733,0.552,0.675,0.532,0.517,0.494,0.736,0.577,0.789,1.09,1.19,1.19,1.11,0.978,0.888,0.963
NCI-H1666,0.886,0.925,0.857,0.906,0.866,0.796,0.88,0.776,0.798,0.923,0.834,0.839,1.06,0.884,0.847,0.599,0.523,0.481,0.736,0.605
NCI-H1651,0.587,0.598,0.531,0.56,0.53,0.445,0.372,0.352,0.348,0.345,1.03,1.26,0.944,0.908,1.06,0.849,0.828,0.954,1,0.76
NCI-H1755,0.42,0.424,0.424,0.425,0.422,0.497,0.343,0.456,0.359,0.417,1.05,1.03,0.975,0.957,0.976,1.08,1.03,0.992,1.03,1.02
NCI-H661,0.922,0.973,0.899,0.924,0.899,0.907,0.833,0.906,0.881,0.872,0.593,0.636,0.603,0.762,0.463,0.634,0.447,0.362,0.519,0.351
HARA,0.218,0.215,0.262,0.273,0.255,0.243,0.263,0.28,0.231,0.235,1.08,1.01,0.919,0.924,1.01,0.784,0.84,0.828,0.78,0.809
NCI-H596,0.481,0.544,0.484,0.481,0.488,0.586,0.619,0.658,0.512,0.594,1.02,1.14,1.08,1.13,1.13,1.01,1.04,1.11,1.16,1.06
NCI-H1563,0.796,0.795,0.686,0.742,0.857,0.503,0.439,0.418,0.404,0.491,1.15,1.24,1.26,1.23,1.23,1.11,0.955,0.96,0.912,1.09
NCI-H23,0.825,0.635,0.689,0.697,0.697,0.926,1.05,0.82,0.725,0.964,0.521,0.548,0.516,0.565,0.777,0.988,1.15,1.23,1.06,0.97
